# Assay results as given in ChEMBL document CHEMBL4364313, “Synthesis of new 5,6,7,8-tetrahydropyrido[1,2-c]pyrimidine derivatives with rigidized tryptamine moiety as potential SSRI and 5-HT1A receptor ligands” (Eur J Med Chem, 2019).
# The source made the active and inactive calls. The rule behind the calls is not given here.
# How the values were obtained:
# [1] = biological target: Serotonin transporter (SERT); experiment: biochemical
# [2] = tested on: Mus musculus; experiment: Induction of hypothermia in CD-1 mouse assessed as change in body temperature at 5 mg/kg, ip treated for 30 mins and measured after 30 mins by thermometric method; format: functional, organism-based
# [3] = biological target: 5-hydroxytryptamine receptor 6 (Homo sapiens, UniProt P50406); experiment: biochemical
# Description: Displacement of [3H]LSD from human 5-HT6 receptor expressed in HEK cells incubated for 1 hr by Cheng-Prusoff analysis based microbeta scintillation counting method
# [4] = tested on: Mus musculus; experiment: Inhibition of 8-OH-DPAT-induced hypothermia in CD-1 mouse assessed change in body temperature at 20 mg/kg, ip pretreated for 45 mins followed by 8-OH-DPAT addition and measured after 45 mins by thermometric method; format: functional, organism-based
# [5] = tested on: Mus musculus; experiment: Inhibition of 8-OH-DPAT-induced hypothermia in CD-1 mouse assessed change in body temperature at 20 mg/kg, ip pretreated for 45 mins followed by 8-OH-DPAT addition and measured after 60 mins by thermometric method; format: functional, organism-based
# [6] = tested on: Mus musculus; experiment: Inhibition of 8-OH-DPAT-induced hypothermia in CD-1 mouse assessed change in body temperature at 20 mg/kg, ip pretreated for 45 mins followed by 8-OH-DPAT addition and measured after 30 mins by thermometric method; format: functional, organism-based
# [7] = tested on: Mus musculus; experiment: Induction of hypothermia in CD-1 mouse assessed as change in body temperature at 5 mg/kg, ip treated for 60 mins and measured after 30 mins by thermometric method; format: functional, organism-based
# [8] = Half life in human liver microsomes at 1 uM measured for 5 to 60 mins under shaking condition in presence of NADPH by LCMS analysis; format: ADME, Microsome
# [9] = tested on: Mus musculus; experiment: Inhibition of 8-OH-DPAT-induced hypothermia in CD-1 mouse assessed change in body temperature at 20 mg/kg, ip pretreated for 45 mins followed by 8-OH-DPAT addition and measured after 15 mins by thermometric method; format: functional, organism-based
# [10] = biological target: 5-hydroxytryptamine receptor 2A (Homo sapiens, UniProt P28223); experiment: Displacement of [3H]ketanserin from human 5HT2A receptor expressed in HEK293 cells incubated for 1.5 hrs by Cheng-Prusoff analysis based microbeta scintillation counting method; format: cell-based
# [11] = tested on: Mus musculus; experiment: Induction of hypothermia in CD-1 mouse assessed as change in body temperature at 20 mg/kg, ip treated for 60 mins and measured after 30 mins by thermometric method; format: functional, organism-based
# [12] = tested on: Mus musculus; experiment: Induction of hypothermia in CD-1 mouse assessed as change in body temperature at 20 mg/kg, ip treated for 120 mins and measured after 30 mins by thermometric method; format: functional, organism-based
# [13] = tested on: Mus musculus; experiment: Induction of hypothermia in CD-1 mouse assessed as change in body temperature at 5 mg/kg, ip treated for 120 mins and measured after 30 mins by thermometric method; format: functional, organism-based
# [14] = biological target: D(2) dopamine receptor (Homo sapiens, UniProt P14416); experiment: biochemical
# Description: Displacement of [3H]-raclopride from human D2 receptor expressed in HEK cells incubated for 1 hr by Cheng-Prusoff analysis based microbeta scintillation counting method
# [15] = tested on: Mus musculus; experiment: Induction of hypothermia in CD-1 mouse assessed as change in body temperature at 20 mg/kg, ip treated for 90 mins and measured after 30 mins by thermometric method; format: functional, organism-based
# [16] = tested on: Mus musculus; experiment: Induction of hypothermia in CD-1 mouse assessed as change in body temperature at 20 mg/kg, ip treated for 30 mins and measured after 30 mins by thermometric method; format: functional, organism-based
# [17] = tested on: Mus musculus; experiment: Induction of hypothermia in CD-1 mouse assessed as change in body temperature at 5 mg/kg, ip treated for 90 mins and measured after 30 mins by thermometric method; format: functional, organism-based
# [18] = biological target: 5-hydroxytryptamine receptor 7 (Homo sapiens, UniProt P34969); experiment: biochemical
# Description: Displacement of [3H]-5-CT from human 5HT7 receptor expressed in HEK cells incubated for 1 hr by Cheng-Prusoff analysis based microbeta scintillation counting method
# [19] = species: Mus musculus; experiment: Effect on forepaw treading in CD-1 mouse up to 30 mins in presence of 8-OH-DPAT; format: functional, organism-based
# [20] = species: Mus musculus; experiment: Effect on forepaw treading in CD-1 mouse; format: ADME, organism-based; conditions: in vivo
# [21] = species: Mus musculus; experiment: Effect on forepaw treading in CD-1 mouse in presence of 8-OH-DPAT; format: functional, organism-based
# [22] = tested on: Mus musculus; experiment: Psychoactive effect in CD-1 mouse assessed as effect on immobility time at 5 to 20 mg/kg, ip pretreated for 30 mins and measured after 6 mins by force swim test; format: ADME, organism-based; conditions: in vivo, 0.1 h
# Chain of 5-hydroxytryptamine receptor 2A (P28223 whole entry): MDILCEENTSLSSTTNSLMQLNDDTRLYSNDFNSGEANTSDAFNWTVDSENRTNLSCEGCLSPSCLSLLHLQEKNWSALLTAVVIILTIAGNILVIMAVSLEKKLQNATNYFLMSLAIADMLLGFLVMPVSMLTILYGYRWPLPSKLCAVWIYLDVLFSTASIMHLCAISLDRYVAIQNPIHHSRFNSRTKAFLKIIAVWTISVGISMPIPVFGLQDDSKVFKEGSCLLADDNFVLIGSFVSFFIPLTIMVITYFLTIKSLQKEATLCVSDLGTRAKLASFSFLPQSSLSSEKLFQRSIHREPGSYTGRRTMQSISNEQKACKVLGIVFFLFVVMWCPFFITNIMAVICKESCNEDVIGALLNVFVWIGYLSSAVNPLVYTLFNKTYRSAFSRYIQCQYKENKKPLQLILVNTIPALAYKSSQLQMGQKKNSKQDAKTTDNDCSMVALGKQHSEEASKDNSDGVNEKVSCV
# Chain of D(2) dopamine receptor (P14416 whole entry): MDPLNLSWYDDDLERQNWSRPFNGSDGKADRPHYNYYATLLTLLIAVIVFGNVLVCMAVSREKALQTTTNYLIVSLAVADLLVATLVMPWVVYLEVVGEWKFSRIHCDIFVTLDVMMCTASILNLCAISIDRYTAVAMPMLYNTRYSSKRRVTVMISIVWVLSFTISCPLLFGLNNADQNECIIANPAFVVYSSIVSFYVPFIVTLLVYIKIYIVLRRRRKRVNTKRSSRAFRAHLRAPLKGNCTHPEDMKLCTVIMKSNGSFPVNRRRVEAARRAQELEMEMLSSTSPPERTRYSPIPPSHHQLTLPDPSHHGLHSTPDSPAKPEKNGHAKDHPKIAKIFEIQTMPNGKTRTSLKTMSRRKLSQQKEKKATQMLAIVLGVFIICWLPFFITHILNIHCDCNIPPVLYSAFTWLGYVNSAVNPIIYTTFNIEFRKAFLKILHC
# Chain of 5-hydroxytryptamine receptor 7 (P34969 whole entry): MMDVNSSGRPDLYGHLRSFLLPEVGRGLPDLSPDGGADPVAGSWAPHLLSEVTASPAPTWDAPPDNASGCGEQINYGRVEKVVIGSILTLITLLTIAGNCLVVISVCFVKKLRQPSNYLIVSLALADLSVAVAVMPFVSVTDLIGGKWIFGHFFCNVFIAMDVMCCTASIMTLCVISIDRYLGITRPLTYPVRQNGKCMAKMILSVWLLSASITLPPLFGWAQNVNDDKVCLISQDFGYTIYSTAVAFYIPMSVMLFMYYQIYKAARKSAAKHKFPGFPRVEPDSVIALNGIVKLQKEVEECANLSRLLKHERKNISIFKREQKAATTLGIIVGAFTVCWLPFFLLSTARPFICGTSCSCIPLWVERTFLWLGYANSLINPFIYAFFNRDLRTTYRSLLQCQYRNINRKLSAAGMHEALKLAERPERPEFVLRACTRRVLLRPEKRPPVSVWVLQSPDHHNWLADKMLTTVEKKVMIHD
# Chain of 5-hydroxytryptamine receptor 6 (P50406 whole entry): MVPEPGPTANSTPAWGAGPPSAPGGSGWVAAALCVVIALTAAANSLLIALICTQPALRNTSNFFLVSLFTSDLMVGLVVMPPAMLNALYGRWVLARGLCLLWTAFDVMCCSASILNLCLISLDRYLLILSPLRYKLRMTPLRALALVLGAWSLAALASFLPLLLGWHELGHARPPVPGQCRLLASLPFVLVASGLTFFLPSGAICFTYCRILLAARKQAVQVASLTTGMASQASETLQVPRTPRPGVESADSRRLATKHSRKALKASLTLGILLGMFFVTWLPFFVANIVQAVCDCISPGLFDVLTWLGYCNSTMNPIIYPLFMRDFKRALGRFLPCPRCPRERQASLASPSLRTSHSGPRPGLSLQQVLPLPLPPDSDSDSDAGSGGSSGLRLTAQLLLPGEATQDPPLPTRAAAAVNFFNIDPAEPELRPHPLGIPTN
structure (smiles),measurement,setting,value
COc1ccc2[nH]cc(C3CCCN(CCCCn4c(=O)c(-c5ccc(F)cc5)c5n(c4=O)CCCC5)C3)c2c1 (centres undefined),Ki,[1],0.076 µM
O=c1c(-c2ccccc2F)c2n(c(=O)n1CCCCN1CCCC(c3c[nH]c4ccccc34)C1)CCCC2 (centres undefined),deltaT,[2],0.2 °C
same,Ki,[3],1.03 µM
same,deltaT,[4],-1.9 °C
same,deltaT,[5],-1.8 °C
same,deltaT,[6],-1.8 °C
same,Ki,[1],0.015 µM
same,deltaT,[7],0.3 °C
same,half-life at 1 µM,[8],12 min
same,deltaT,[9],-1.6 °C
same,Ki,[10],0.325 µM
same,deltaT,[11],0 °C
same,deltaT,[12],0.7 °C
same,deltaT,[13],1 °C
same,Ki,[14],> 10 µM
same,deltaT,[15],0.6 °C
same,deltaT,[16],-0.8 °C
same,deltaT,[17],0.7 °C
same,Ki,[18],2.43 µM
COc1ccc2[nH]cc(C3CCCN(CCCCn4c(=O)c(-c5ccc(C)cc5)c5n(c4=O)CCCC5)C3)c2c1 (centres undefined),Ki,[1],0.321 µM
Cc1ccc(-c2c3n(c(=O)n(CCCCN4CCCC(c5c[nH]c6ccc(F)cc56)C4)c2=O)CCCC3)cc1 (centres undefined),Ki,[1],0.233 µM
COc1ccccc1-c1c2n(c(=O)n(CCCCN3CCCC(c4c[nH]c5ccccc45)C3)c1=O)CCCC2 (centres undefined),Ki,[1],0.025 µM
Cc1ccccc1-c1c2n(c(=O)n(CCCCN3CCCC(c4c[nH]c5ccc(F)cc45)C3)c1=O)CCCC2 (centres undefined),Ki,[1],0.142 µM
O=c1c(-c2ccccc2)c2n(c(=O)n1CCCCN1CCCC(c3c[nH]c4ccccc34)C1)CCCC2 (centres undefined),deltaT,[2],0.2 °C
same,Ki,[3],1.15 µM
same,deltaT,[4],-0.9 °C
same,deltaT,[5],0.7 °C
same,deltaT,[6],-1.1 °C
same,Ki,[1],0.027 µM
same,deltaT,[7],0.3 °C
same,half-life at 1 µM,[8],11.1 min
same,deltaT,[9],-1.2 °C
same,Ki,[10],0.725 µM
same,deltaT,[11],0 °C
same,deltaT,[12],-0.1 °C
same,deltaT,[13],0.8 °C
same,Ki,[14],2.35 µM
same,deltaT,[15],-0.2 °C
same,deltaT,[16],-0.6 °C
same,deltaT,[17],0.3 °C
same,Ki,[18],1.09 µM
O=c1c(-c2ccc(Cl)cc2)c2n(c(=O)n1CCCCN1CCCC(c3c[nH]c4ccc(F)cc34)C1)CCCC2 (centres undefined),Ki,[1],0.259 µM
O=c1c(-c2ccc(F)cc2)c2n(c(=O)n1CCCCN1CCCC(c3c[nH]c4ccc(F)cc34)C1)CCCC2 (centres undefined),deltaT,[2],0.8 °C
same,Ki,[3],0.728 µM
same,deltaT,[4],-0.3 °C
same,deltaT,[5],-0.4 °C
same,deltaT,[6],0.2 °C
same,Ki,[1],0.031 µM
same,deltaT,[7],0.8 °C
same,half-life at 1 µM,[8],6.2 min
same,deltaT,[9],-0.1 °C
same,Ki,[10],0.484 µM
same,deltaT,[11],0.1 °C
same,deltaT,[12],0 °C
same,deltaT,[13],0.9 °C
same,Ki,[14],1.05 µM
same,Activity,[19],Active
same,deltaT,[15],0.1 °C
same,Activity,[20],Non-Toxic
same,deltaT,[16],-0.6 °C
same,deltaT,[17],0.6 °C
same,Ki,[18],1.11 µM
COc1ccc(-c2c3n(c(=O)n(CCCCN4CCCC(c5c[nH]c6ccc(OC)cc56)C4)c2=O)CCCC3)cc1 (centres undefined),Ki,[3],0.452 µM
same,Ki,[1],0.052 µM
same,half-life at 1 µM,[8],7 min
same,Ki,[10],1.19 µM
same,Ki,[14],1.8 µM
same,Ki,[18],0.546 µM
COc1ccc2[nH]cc(C3CCCN(CCCCn4c(=O)c(-c5ccccc5F)c5n(c4=O)CCCC5)C3)c2c1 (centres undefined),Ki,[1],0.236 µM
O=c1c(-c2ccccc2Cl)c2n(c(=O)n1CCCCN1CCCC(c3c[nH]c4ccccc34)C1)CCCC2 (centres undefined),deltaT,[2],0 °C
same,Ki,[3],1.03 µM
same,Ki,[1],0.008 µM
same,deltaT,[7],0.3 °C
same,half-life at 1 µM,[8],7 min
same,Ki,[10],0.609 µM
same,deltaT,[11],0.2 °C
same,deltaT,[12],0.2 °C
same,deltaT,[13],0.8 °C
same,Ki,[14],0.896 µM
same,deltaT,[15],0.3 °C
same,deltaT,[16],-0.8 °C
same,deltaT,[17],0.9 °C
same,Ki,[18],1.36 µM
O=C1CC2(CCCC2)CC(=O)N1CCCCN1CCN(c2ncccn2)CC1 [BUSPIRONE],half-life at 1 µM,[8],6.6 min
COc1ccc2[nH]cc(C3CCCN(CCCCn4c(=O)c(-c5ccc(Cl)cc5)c5n(c4=O)CCCC5)C3)c2c1 (centres undefined),Ki,[1],0.023 µM
COc1ccccc1-c1c2n(c(=O)n(CCCCN3CCCC(c4c[nH]c5ccc(F)cc45)C3)c1=O)CCCC2 (centres undefined),Ki,[1],0.04 µM
Cc1ccc(-c2c3n(c(=O)n(CCCCN4CCCC(c5c[nH]c6ccccc56)C4)c2=O)CCCC3)cc1 (centres undefined),Ki,[1],0.05 µM
O=c1c(-c2ccccc2)c2n(c(=O)n1CCCCN1CCCC(c3c[nH]c4ccc(F)cc34)C1)CCCC2 (centres undefined),Ki,[1],0.105 µM
COc1ccc2[nH]cc(C3CCCN(CCCCn4c(=O)c(-c5ccccc5OC)c5n(c4=O)CCCC5)C3)c2c1 (centres undefined),Ki,[1],0.239 µM
O=c1c(-c2ccc(F)cc2)c2n(c(=O)n1CCCCN1CCCC(c3c[nH]c4ccccc34)C1)CCCC2 (centres undefined),deltaT,[2],0.3 °C
same,Ki,[3],1.65 µM
same,deltaT,[4],-0.3 °C
same,deltaT,[5],-0.9 °C
same,deltaT,[6],-0.2 °C
same,Ki,[1],0.013 µM
same,deltaT,[7],0.3 °C
same,half-life at 1 µM,[8],7 min
same,deltaT,[9],-0.2 °C
same,Ki,[10],1.28 µM
same,deltaT,[11],0.3 °C
same,Activity,[21],Active
same,deltaT,[12],0.1 °C
same,deltaT,[13],0.5 °C
same,Ki,[14],1.98 µM
same,deltaT,[15],-0.1 °C
same,deltaT,[16],0.1 °C
same,deltaT,[17],0.3 °C
same,Activity,[22],Non-Toxic
same,Ki,[18],1.71 µM
COc1ccc2[nH]cc(C3CCCN(CCCCn4c(=O)c(-c5ccccc5Cl)c5n(c4=O)CCCC5)C3)c2c1 (centres undefined),Ki,[1],0.05 µM
COc1ccc2[nH]cc(C3CCCN(CCCCn4c(=O)c(-c5ccccc5C)c5n(c4=O)CCCC5)C3)c2c1 (centres undefined),Ki,[1],0.066 µM
COc1ccc2[nH]cc(C3CCCN(CCCCn4c(=O)c(-c5ccccc5)c5n(c4=O)CCCC5)C3)c2c1 (centres undefined),Ki,[1],0.102 µM
O=c1c(-c2ccccc2Cl)c2n(c(=O)n1CCCCN1CCCC(c3c[nH]c4ccc(F)cc34)C1)CCCC2 (centres undefined),Ki,[1],0.047 µM
Cc1ccccc1-c1c2n(c(=O)n(CCCCN3CCCC(c4c[nH]c5ccccc45)C3)c1=O)CCCC2 (centres undefined),Ki,[1],0.062 µM
COc1ccc(-c2c3n(c(=O)n(CCCCN4CCCC(c5c[nH]c6ccccc56)C4)c2=O)CCCC3)cc1 (centres undefined),Ki,[1],0.052 µM
O=c1c(-c2ccc(Cl)cc2)c2n(c(=O)n1CCCCN1CCCC(c3c[nH]c4ccccc34)C1)CCCC2 (centres undefined),deltaT,[2],0.1 °C
same,Ki,[3],1.32 µM
same,deltaT,[4],-1.2 °C
same,deltaT,[5],-1.2 °C
same,deltaT,[6],-1.1 °C
same,Ki,[1],0.03 µM
same,deltaT,[7],0.3 °C
same,deltaT,[9],-1.1 °C
same,Ki,[10],1.49 µM
same,deltaT,[11],0.7 °C
same,deltaT,[12],0.3 °C
same,deltaT,[13],0.2 °C
same,Ki,[14],1.65 µM
same,deltaT,[15],0.5 °C
same,deltaT,[16],0.3 °C
same,deltaT,[17],-0.1 °C
same,Ki,[18],1.38 µM
COc1ccc(-c2c3n(c(=O)n(CCCCN4CCCC(c5c[nH]c6ccc(F)cc56)C4)c2=O)CCCC3)cc1 (centres undefined),Ki,[1],0.042 µM
O=c1c(-c2ccccc2F)c2n(c(=O)n1CCCCN1CCCC(c3c[nH]c4ccc(F)cc34)C1)CCCC2 (centres undefined),Ki,[1],0.028 µM
